Laboratory results published in patent publication US20230085307A1, “PYRIDAZINONE COMPOUND AND HERBICIDE” (NISSAN CHEMICAL CORPORATION, priority 2019, published 2023).

Tests used:
redroot pigweed = test: Test Example 5: herbicidal effect by foliage application, plastic box (Table 20, symbol N); assay type: in vivo, redroot pigweed (Amaranthus retroflexus); conditions: foliage application, three weeks after application
Method in brief: (§1)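 Plants sown in sterilized diluvial soil and grown 14 days in a greenhouse at 25° C to 30° C, then sprayed on the foliage with the compound's emulsion diluted in water to a predetermined herbicide amount. Injury to weeds and crops scored three weeks after application on a visual rating scale.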

Japanese bulrush = test: Test Example 2: herbicidal activity, application during weed generation under submerged conditions (Table 17, symbol B); assay type: in vivo, Japanese bulrush (Schoenoplectus juncoides); conditions: application during weed generation, submerged conditions
Method in brief: (§2)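 Mixed weed seedlings in alluvial soil under a 4 cm water layer, greenhouse-grown at 25–30° C. Compound given as a diluted emulsion into the floodwater at the 1–2 leaf stage; response graded after three weeks.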

oval-leafed pondweed [1] = test: Test Example 2: herbicidal activity, application during weed generation under submerged conditions (Table 17, symbol C); assay type: in vivo, oval-leafed pondweed (Monochoria vaginalis); conditions: application during weed generation, submerged conditions
Method in brief: as §2

oval-leafed pondweed [2] = test: Test Example 1: herbicidal activity, application before weed generation under submerged conditions (Table 16, symbol C); assay type: in vivo, oval-leafed pondweed (Monochoria vaginalis)
Method in brief: (§3)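 Alluvial soil was flooded to 4 cm depth, weed seeds were sown mixed and 2.5-leaf rice seedlings were transplanted. On sowing day, the compound's emulsion, diluted in water to a set dose, was applied to the water surface. Plants grew at 25–30 °C and were scored 0–5 after three weeks.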

Italian ryegrass = test: Test Example 4: herbicidal effect by soil treatment (Table 19, symbol K); assay type: in vivo, Italian ryegrass (Lolium multiflorum)
Method in brief: (§4)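 Seeds were sown in sterilized diluvial soil and covered with about 1.5 cm of soil. An emulsion formulation diluted with water to a predetermined herbicide amount was sprayed evenly onto the soil surface. Plants grew in a greenhouse at 25° C. to 30° C., and the effect was scored three weeks after application using criteria from an earlier test.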

windgrass = test: Test Example 4: herbicidal effect by soil treatment (Table 19, symbol L); assay type: in vivo, windgrass (Apera spica-venti)
Method in brief: as §4

velvetleaf = test: Test Example 5: herbicidal effect by foliage application, plastic box (Table 20, symbol M); assay type: in vivo, velvetleaf (Abutilon theophrasti); conditions: foliage application, three weeks after application
Method in brief: as §1

wild oat = test: Test Example 4: herbicidal effect by soil treatment (Table 19, symbol I); assay type: in vivo, wild oat (Avena fatua)
Method in brief: as §4

rice flat sedge = test: Test Example 3: herbicidal effect by foliage application, Wagner pot (Table 18, symbol E); assay type: in vivo, rice flat sedge (Cyperus iria)
Method in brief: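 Plants were sown in alluvial soil held under 0.1–0.5 cm standing water and grown 14 days in a greenhouse at 25–30 °C. An emulsifiable formulation, water-diluted to the set dose, was then sprayed onto the foliage, and effects were scored three weeks later using previously defined criteria.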

southern crabgrass = test: Test Example 5: herbicidal effect by foliage application, plastic box (Table 20, symbol F); assay type: in vivo, southern crabgrass (Digitaria ciliaris); conditions: foliage application, three weeks after application
Method in brief: as §1

chickweed = test: Test Example 5: herbicidal effect by foliage application, plastic box (Table 20, symbol P); assay type: in vivo, common chickweed (Stellaria media); conditions: foliage application, three weeks after application
Method in brief: as §1

green foxtail = test: Test Example 5: herbicidal effect by foliage application, plastic box (Table 20, symbol G); assay type: in vivo, green foxtail (Setaria viridis); conditions: foliage application, three weeks after application
Method in brief: as §1

persian speedwell [3] = test: Test Example 5: herbicidal effect by foliage application, plastic box (Table 20, symbol R); assay type: in vivo, Persian speedwell (Veronica persica); conditions: foliage application, three weeks after application
Method in brief: as §1

persian speedwell [4] = test: Test Example 4: herbicidal effect by soil treatment (Table 19, symbol R); assay type: in vivo, Persian speedwell (Veronica persica)
Method in brief: as §4

barnyard grass = test: Test Example 5: herbicidal effect by foliage application, plastic box (Table 20, symbol H); assay type: in vivo, barnyard grass (Echinochloa crus-galli); conditions: foliage application, three weeks after application
Method in brief: as §1

late watergrass = test: Test Example 1: herbicidal activity, application before weed generation under submerged conditions (Table 16, symbol A); assay type: in vivo, late watergrass (Echinochloa oryzicola)
Method in brief: as §3

[5] = amount of applied herbicide 274 g/ha
[6] = amount of applied herbicide 80 g/ha
[7] = amount of applied herbicide 320 g/ha

## COc1ccccc1-c1sc2cc(C)ccc2c1-c1c(O)c(C)nn(C)c1=O [3-049]
Redroot pigweed; 274 g/ha
  N: redroot pigweed, herbicidal effect grade: 5 (Herbicidal rate of 90% or more (almost completely withered))
Japanese bulrush; AAH 274 g/ha
  herbicidal effect rating, B: Japanese bulrush: 3 (Herbicidal rate of 40% or more and less than 70%)
oval-leafed pondweed [1]; AAH 274 g/ha
  herbicidal effect rating, C: oval-leafed pondweed: 2 (Herbicidal rate of 20% or more and less than 40%)
oval-leafed pondweed [2]; [5]
  Herbicidal effect, C: oval-leafed pondweed: 3 (Herbicidal rate of 40% or more and less than 70%)
Italian ryegrass; [5]
  K: Italian ryegrass, herbicidal effect grade: 5 (Herbicidal rate of 90% or more (almost completely withered))
windgrass; [5]
  L: windgrass, herbicidal effect grade: 5 (Herbicidal rate of 90% or more (almost completely withered))
velvetleaf; 274 g/ha
  M: velvetleaf, herbicidal effect grade: 5 (Herbicidal rate of 90% or more (almost completely withered))
Wild oat; [5]
  I: wild oat, herbicidal effect grade: 3 (Herbicidal rate of 40% or more and less than 70%)
Rice flat sedge; 274 g/ha
  herbicidal effect on rice flat sedge (E): 3 (Herbicidal rate of 40% or more and less than 70%)
Southern crabgrass; 274 g/ha
  F: southern crabgrass, herbicidal effect grade: 5 (Herbicidal rate of 90% or more (almost completely withered))
chickweed; 274 g/ha
  P: chickweed, herbicidal effect grade: 5 (Herbicidal rate of 90% or more (almost completely withered))
Green foxtail; 274 g/ha
  G: green foxtail, herbicidal effect grade: 5 (Herbicidal rate of 90% or more (almost completely withered))
Persian speedwell [3]; 274 g/ha
  R: persian speedwell, herbicidal effect grade: 5 (Herbicidal rate of 90% or more (almost completely withered))
Persian speedwell [4]; [5]
  R: persian speedwell, herbicidal effect grade: 4 (Herbicidal rate of 70% or more and less than 90%)
Barnyard grass; 274 g/ha
  H: barnyard grass, herbicidal effect grade: 4 (Herbicidal rate of 70% or more and less than 90%)
Late watergrass; [5]
  Herbicidal effect, A: late watergrass: 5 (Herbicidal rate of 90% or more (almost completely withered))

## CCOc1ccccc1-c1sc2cc(OC)ccc2c1-c1c(O)c(C)nn(C)c1=O [3-070]
Redroot pigweed; 80 g/ha
  N: redroot pigweed, herbicidal effect grade: 5 (Herbicidal rate of 90% or more (almost completely withered))
Japanese bulrush; AAH 80 g/ha
  herbicidal effect rating, B: Japanese bulrush: 5 (Herbicidal rate of 90% or more (almost completely withered))
oval-leafed pondweed [1]; AAH 80 g/ha
  herbicidal effect rating, C: oval-leafed pondweed: 4 (Herbicidal rate of 70% or more and less than 90%)
oval-leafed pondweed [2]; [6]
  Herbicidal effect, C: oval-leafed pondweed: 4 (Herbicidal rate of 70% or more and less than 90%)
Italian ryegrass; [6]
  K: Italian ryegrass, herbicidal effect grade: 0 (Herbicidal rate of 5% or less (almost no effect))
windgrass; [6]
  L: windgrass, herbicidal effect grade: 0 (Herbicidal rate of 5% or less (almost no effect))
velvetleaf; 80 g/ha
  M: velvetleaf, herbicidal effect grade: 5 (Herbicidal rate of 90% or more (almost completely withered))
Wild oat; [6]
  I: wild oat, herbicidal effect grade: 0 (Herbicidal rate of 5% or less (almost no effect))
Rice flat sedge; 80 g/ha
  herbicidal effect on rice flat sedge (E): 5 (Herbicidal rate of 90% or more (almost completely withered))
Southern crabgrass; 80 g/ha
  F: southern crabgrass, herbicidal effect grade: 5 (Herbicidal rate of 90% or more (almost completely withered))
chickweed; 80 g/ha
  P: chickweed, herbicidal effect grade: 5 (Herbicidal rate of 90% or more (almost completely withered))
Green foxtail; 80 g/ha
  G: green foxtail, herbicidal effect grade: 4 (Herbicidal rate of 70% or more and less than 90%)
Persian speedwell [3]; 80 g/ha
  R: persian speedwell, herbicidal effect grade: 5 (Herbicidal rate of 90% or more (almost completely withered))
Persian speedwell [4]; [6]
  R: persian speedwell, herbicidal effect grade: 5 (Herbicidal rate of 90% or more (almost completely withered))
Barnyard grass; 80 g/ha
  H: barnyard grass, herbicidal effect grade: 5 (Herbicidal rate of 90% or more (almost completely withered))
Late watergrass; [6]
  Herbicidal effect, A: late watergrass: 5 (Herbicidal rate of 90% or more (almost completely withered))

## Cc1nn(C)c(=O)c(-c2c(-c3ccc(C#N)cc3)sc3ccccc23)c1O [Compound No. 1-045, 5-hydroxy-2,6-dimethyl-4-(2-(4-cyanophenyl)benzo[b]thiophen-3-yl)pyridazin-3(2H)-one]
Redroot pigweed; 320 g/ha
  herbicidal effect grade, N: redroot pigweed: 5 (Herbicidal rate of 90% or more (almost completely withered))
Japanese bulrush; AAH 320 g/ha
  herbicidal effect rating, B: Japanese bulrush: 3 (Herbicidal rate of 40% or more and less than 70%)
oval-leafed pondweed [1]; AAH 320 g/ha
  herbicidal effect rating, C: oval-leafed pondweed: 4 (Herbicidal rate of 70% or more and less than 90%)
oval-leafed pondweed [2]; 320 g/ha applied herbicide
  Herbicidal effect on C: oval-leafed pondweed (grade 0-5): 4 (Herbicidal rate of 70% or more and less than 90%)
Italian ryegrass; [7]
  herbicidal effect rating, K: Italian ryegrass: 5 (Herbicidal rate of 90% or more (almost completely withered))
windgrass; [7]
  herbicidal effect rating, L: windgrass: 0 (Herbicidal rate of 5% or less (almost no effect))
velvetleaf; 320 g/ha
  herbicidal effect grade, M: velvetleaf: 5 (Herbicidal rate of 90% or more (almost completely withered))
Wild oat; [7]
  herbicidal effect rating, I: wild oat: 0 (Herbicidal rate of 5% or less (almost no effect))
Rice flat sedge; 320 g/ha
  herbicidal effect on E (rice flat sedge), rating 0-5: 5 (Herbicidal rate of 90% or more (almost completely withered))
Southern crabgrass; 320 g/ha
  herbicidal effect grade, F: southern crabgrass: 3 (Herbicidal rate of 40% or more and less than 70%)
chickweed; 320 g/ha
  herbicidal effect grade, P: chickweed: 5 (Herbicidal rate of 90% or more (almost completely withered))
Green foxtail; 320 g/ha
  herbicidal effect grade, G: green foxtail: 3 (Herbicidal rate of 40% or more and less than 70%)
Persian speedwell [3]; 320 g/ha
  herbicidal effect grade, R: persian speedwell: 5 (Herbicidal rate of 90% or more (almost completely withered))
Persian speedwell [4]; [7]
  herbicidal effect rating, R: persian speedwell: 5 (Herbicidal rate of 90% or more (almost completely withered))
Barnyard grass; 320 g/ha
  herbicidal effect grade, H: barnyard grass: 4 (Herbicidal rate of 70% or more and less than 90%)
Late watergrass; 320 g/ha applied herbicide
  Herbicidal effect on A: late watergrass (grade 0-5): 1 (Herbicidal rate of 5% or more and less than 20%)
